Test results taken from patent US20210077479A1, “FORMULATIONS OF PIMAVANSERIN” (ACADIA Pharmaceuticals Inc., priority 2017, published 2021).

Tests used:
[1] = Carr's Index (Carr's Compressibility Index), USP <616>/<1174>; assay type: physicochemical
Method: (§1) Can's Index compares the difference between the bulk density and tapped density of a substance to determine its compressibility. The bulk density and the Carr's Index may be determined in accordance with USP<616> (method for performing Bulk and Tapped Densities, method 1) and USP<1174> (definition of powder flow) respectively.
Table 1 visualizes that filling of a capsule, in particular a capsule of size 3 or 4 (capsule volumes of 0.30 and 0.21 ml respectively, approximately […] and 85 mg respectively at a bulk density of 0.5 g/ml). As evident from Table 1, native pimavanserin (API) would be challenging for a size 3 capsule and not possible for a capsule of size 4 without improving the bulk density (as comparison 85 mg of pimavanserin granulation would require about 0.17 ml compared to 0.29 nil for the native API) and flowability (Carr index is frequently used in pharmaceutical manufacturing as an indication of the flowability of a powder, e.g. 2016 U.S. Pharmacopoeia-National Formulary [USP 35 NF 30]).

[2] = Bulk density according to USP <616>, method 1; assay type: physicochemical
Source text: as §1
The bulk density of the blended composition is >0.4 g/ml, such as 0.4-0.6 g/ml, such as about 0.5 g/ml determined according to USP <616>, method 1. In some embodiments the bulk density of the composition is >0.4 g/ml, such as about 0.5 g/ml, such as 0.51 g/ml, such as 0.508 g/ml.
The bulk density of pimavanserin granulation is >0.4 g/ml, such as 0.4-0.6 g/ml, such as about 0.5 g/ml, determined according to USP <616>, method 1. In some embodiments the bulk density of the pimavanserin granulation is >0.4 g/ml, such as about 0.5 g/ml, such as 0.51 g/ml, such as 0.508 g/ml.

[3] = Laser light scattering particle size analysis (Malvern Mastersizer 2000); assay type: physicochemical; conditions: FIG. 4 / FIG. 5
Source text: The small quantity of water, its application using appropriate water atomization and/or water application rate are important reasons for the improved properties of pimavanserin. […] The actual amount of water to be sprayed at the granulation of pimavanserin may vary from batch to batch (depending on surrounding factors such as humidity, temperature, exact properties of the API batch, etc) but is still consider to be a small amount, e.g. 3-10% w/w based on the dry ingredients. The amount of water and the granulation process disclosed herein is controlled by controlling the impeller energy to achieve the targeted impeller speed. The appropriate impeller speed ensures sufficient mixing and controls the growth of granules. The specific small amount of water needed for each batch is controlled by the power consumption (amperage) of the granulator, i.e., if the amperage is […], additional amounts of water could be sprayed to the granulate in order to obtain pimavanserin having the properties desired in order to pharmaceutically manufacture capsules comprising 5-34 mg pimavanserin. […] The properties are achieved via a manufacturing process that includes granulation, using a suitable granulator, e.g. a high shear granulator, simultaneously spraying the adequate amount of water while mixing, followed by screening, and blending appropriate quantities of excipients. […]

[4] = test system: DOI ((±)-2,5-dimethoxy-4-iodoamphetamine, a serotonin agonist) induced head twitches; conditions: rat, oral doses of 3 and 10 mg/kg; cited from earlier work

Molecule | Carr's Index [1] | Bulk density according to USP <616> [2] | volume required for 85 mg ([2]; 85 mg of powder, from bulk density) [mL] | particle size distribution D90 [3] | activity against DOI induced head twitches [4]
pimavanserin tartrate [Native API] | 36 (n = 2) | 0.294 (n = 2) g/ml | 0.29 | about 30 μm | 
CC(C)COc1ccc(CNC(=O)N(Cc2ccc(F)cc2)C2CCN(C)CC2)cc1 [Pimavanserin, N-(1-methylpiperidin-4-yl)-N-(4-fluorophenylmethyl)-N′-(4-(2-methylpropyloxy)phenylmethyl)carbamide] |  |  |  |  | effective
